Measured values as given in patent US20260256792A1, “TREATMENT OF CHRONIC SPONTANEOUS URTICARIA BY ADMINISTERING (R)-2-[3-[4-AMINO-3-(2-FLUORO-4-PHENOXY-PHENYL)PYRAZOLO[3,4-D]PYRIMIDIN-1-YL]PIPERIDINE-1-CARBONYL]-4-METHYL-4-[4-(OXETAN-3-YL)PIPERAZIN-1-YL]PENT-2-ENENITRILE” (priority 2023, published 2026).

Tested on: moderate-to-severe chronic spontaneous urticaria (CSU)
Assay: Phase 2 CSU study: urticaria activity score over 7 days (UAS7)
Format: in vivo, human
Design: key to UAS7 Median / UAS7 Change from baseline Median / UAS7 change from baseline, Q1 / UAS7 change from baseline, Q3 / UAS7 change from baseline, Max / UAS7 Change from baseline LS Mean (SE): UAS7 points; daily UAS score ranges 0–6 points/day, over 7 days
Description: The study comprises a 12 week, randomized, double-blind, placebo-controlled, multi-center, dose-ranging efficacy and safety phase, followed by a 40 week open label extension (OLE) phase (see FIG. 1). The study consists of three phases and an optional OLE phase. […] Clinically, CSU is characterized by the spontaneous and recurrent appearance of pruritic hives. The proposed primary endpoints were the UAS7 at Week 12 in EU and EU reference countries and the ISS7 in the US. Regardless of where a participant was from, all assessments were the same. The UAS7 score is a composite score containing both the HSS7 and the ISS7. This allowed a global assessment of the two key components of urticaria: hives and itch. […] The UAS is a validated PRO measure. […] The daily UAS scores range from 0 to 6 point/day. […] Patients were to complete the UAS using the e-diary. […] The following secondary endpoints were to be analyzed using the same approach as for the primary endpoint: • Change from baseline in UAS7 at Week 4 • Change from baseline in UAS7 at Week 12 (for US and US reference countries) • Change from baseline in ISS7 at Week 12 (except US and US reference countries) • Change from baseline in HSS7 at Week 12 The following responder secondary endpoints were to be analyzed using the Cochran-Mantel-Haenszel test adjusted by region: • Proportion of participants with UAS7<6 at Week 12 • Proportion of participants with UAS7=0 at Week 12 Participants who received selected prohibited medications and/or rescue medications were to be considered as non-responders for time points after the medication usage. For other participants, all available data including those collected during the off-treatment period were to be used to determine the responder/non-responder status. Missing data were to be considered as non-responders.

[1] = Week 6, 400 mg BID, ITT population
[2] = Week 6, 400 mg BID, Omalizumab-Naïve
[3] = Week 6, 400 mg BID, Prior Omalizumab Use
[4] = Week 6, 400 mg BID, omalizumab-naive participants
[5] = Week 6, 400 mg QPM, ITT population
[6] = Week 6, 400 mg QPM, Omalizumab-Naïve
[7] = Week 6, 400 mg QPM, Prior Omalizumab Use
[8] = Week 6, 400 mg QPM, omalizumab-naive participants
[9] = Week 6, 400 mg TID, ITT population
[10] = Week 6, 400 mg TID, Omalizumab-Naïve
[11] = Week 6, 400 mg TID, Prior Omalizumab Use
[12] = Week 6, 400 mg TID, omalizumab-naive participants
[13] = Week 7, 400 mg BID, ITT population
[14] = Week 7, 400 mg BID, Omalizumab-Naïve

Compound: CC(C)(C=C(C#N)C(=O)N1CCC[C@@H](n2nc(-c3ccc(Oc4ccccc4)cc3F)c3c(N)ncnc32)C1)N1CCN(C2COC2)CC1 [rilzabrutinib, (R)-2-[3-[4-amino-3-(2-fluoro-4-phenoxy-phenyl)pyrazolo[3,4-d]pyrimidin-1-yl]piperidine-1-carbonyl]-4-methyl-4-[4-(oxetan-3-yl)piperazin-1-yl]pent-2-enenitrile]
- OR for rilzabrutinib vs. placebo, UAS7 reduction of 10 points or more [1]: 1.222
- RRD (%) for rilzabrutinib vs. placebo, UAS7 reduction of 10 points or more [1]: 4.9 %
- Responder, UAS7 reduction from baseline of 10 points or more [1]: 21 (51.2) n (%)
- UAS7 Change from baseline Mean (SD) [2]: −12.76 (11.42)
- UAS7 Mean (SD) [2]: 17.02 (12.76)
- UAS7 Median [2]: 16.50
- UAS7 Percent change from baseline Mean (SD) [2]: −43.89 (39.18) %
- UAS7 Percent change from baseline Median [2]: −38.06%
- UAS7 Change from baseline Mean (SD) [3]: −18.97 (18.81)
- UAS7 Change from baseline Median [3]: −26.00
- UAS7 Mean (SD) [3]: 13.03 (15.45)
- UAS7 Median [3]: 5.83
- UAS7 Percent change from baseline Mean (SD) [3]: −54.26 (54.98) %
- UAS7 Percent change from baseline Median [3]: −86.11%
- Non-responder, UAS7 reduction from baseline of 10 points or more [4]: 17 (48.6) n (%)
- OR for rilzabrutinib vs. placebo, UAS7 reduction of 10 points or more [4]: 1.486
- RRD (%) for rilzabrutinib vs. placebo, UAS7 reduction of 10 points or more [4]: 9.8 %
- Responder, UAS7 reduction from baseline of 10 points or more [4]: 18 (51.4) n (%)
- Non-responder, UAS7 reduction from baseline of 10 points or more [5]: 22 (57.9) n (%)
- OR for rilzabrutinib vs. placebo, UAS7 reduction of 10 points or more [5]: 0.959
- RRD (%) for rilzabrutinib vs. placebo, UAS7 reduction of 10 points or more [5]: −1.0 %
- Responder, UAS7 reduction from baseline of 10 points or more [5]: 16 (42.1) n (%)
- UAS7 Change from baseline Mean (SD) [6]: −11.79 (10.56)
- UAS7 Change from baseline Median [6]: −9.00
- UAS7 Mean (SD) [6]: 20.21 (10.42)
- UAS7 Median [6]: 18.25
- UAS7 Percent change from baseline Mean (SD) [6]: −35.97 (30.17) %
- UAS7 Percent change from baseline Median [6]: −37.30%
- UAS7 Change from baseline Mean (SD) [7]: −24.00 (NC)
- UAS7 Change from baseline Median [7]: −24.00
- UAS7 Mean (SD) [7]: 17.00 (NC)
- UAS7 Median [7]: 17.00
- UAS7 Percent change from baseline Mean (SD) [7]: −58.54 (NC) %
- UAS7 Percent change from baseline Median [7]: −58.54%
- Non-responder, UAS7 reduction from baseline of 10 points or more [8]: 22 (59.5) n (%)
- OR for rilzabrutinib vs. placebo, UAS7 reduction of 10 points or more [8]: 0.981
- RRD (%) for rilzabrutinib vs. placebo, UAS7 reduction of 10 points or more [8]: −0.5 %
- Responder, UAS7 reduction from baseline of 10 points or more [8]: 15 (40.5) n (%)
- Non-responder, UAS7 reduction from baseline of 10 points or more [9]: 16 (39.0) n (%)
- OR for rilzabrutinib vs. placebo, UAS7 reduction of 10 points or more [9]: 1.787
- RRD (%) for rilzabrutinib vs. placebo, UAS7 reduction of 10 points or more [9]: 14.2 %
- Responder, UAS7 reduction from baseline of 10 points or more [9]: 25 (61.0) n (%)
- UAS7 Change from baseline Mean (SD) [10]: −15.94 (12.03)
- UAS7 Change from baseline Median [10]: −15.00
- UAS7 Mean (SD) [10]: 14.10 (11.23)
- UAS7 Median [10]: 14.00
- UAS7 Percent change from baseline Mean (SD) [10]: −52.07 (35.76) %
- UAS7 Percent change from baseline Median [10]: −47.83%
- UAS7 Change from baseline Mean (SD) [11]: −26.03 (14.05)
- UAS7 Change from baseline Median [11]: −26.58
- UAS7 Median [11]: 3.00
- UAS7 Percent change from baseline Mean (SD) [11]: −78.40 (28.08) %
- UAS7 Percent change from baseline Median [11]: −89.66%
- Non-responder, UAS7 reduction from baseline of 10 points or more [12]: 15 (42.9) n (%)
- OR for rilzabrutinib vs. placebo, UAS7 reduction of 10 points or more [12]: 1.770
- RRD (%) for rilzabrutinib vs. placebo, UAS7 reduction of 10 points or more [12]: 14.6 %
- Responder, UAS7 reduction from baseline of 10 points or more [12]: 20 (57.1) n (%)
- Non-responder, UAS7 reduction from baseline of 10 points or more [13]: 18 (43.9) n (%)
- OR for rilzabrutinib vs. placebo, UAS7 reduction of 10 points or more [13]: 1.899
- RRD (%) for rilzabrutinib vs. placebo, UAS7 reduction of 10 points or more [13]: 15.6 %
- Responder, UAS7 reduction from baseline of 10 points or more [13]: 23 (56.1) n (%)
- UAS7 Change from baseline Mean (SD) [14]: −14.03 (11.20)
- UAS7 Change from baseline Median [14]: −12.75
- UAS7 Mean (SD) [14]: 15.55 (11.97)
- UAS7 Median [14]: 14.88
- UAS7 Percent change from baseline Mean (SD) [14]: −48.14 (36.14) %
